Reference: ChEMBL document CHEMBL1221408, “Cylindrocyclophanes with proteasome inhibitory activity from the Cyanobacterium Nostoc sp” (J Nat Prod, 2010)
pEC50, pIC50: −log10 of the molar value.

Tests used:
[1] = Inhibition of 20S proteasome
HT-29 = assay: Cytotoxicity against human HT-29 cells; type: functional, cell-based

SMILES | pIC50 [1] | pEC50 (HT-29)
CCCC[C@H]1CCCC[C@H](C)Cc2cc(O)c(c(O)c2)[C@@H](CCCC)CCCC[C@H](C)[C@@H](O)c2cc(O)c1c(O)c2 [CYLINDROCYCLOPHANE C] | 4.23 | –
CCCC[C@H]1CCCC[C@H](C)Cc2cc(O)c(c(O)c2)[C@@H](CCCC(Cl)Cl)CCCC[C@H](C)[C@@H](O)c2cc(O)c1c(O)c2 [CYLINDROCYCLOPHANE C2] | 4.64 | 6.05
C[C@H]1CCCC[C@H](CCCC(Cl)Cl)c2c(O)cc(cc2O)[C@H](O)[C@@H](C)CCCC[C@H](CCCC(Cl)Cl)c2c(O)cc(cc2O)[C@@H]1O [CYLINDROCYCLOPHANE A4] | 5.41 | 5.70
CCCC[C@H]1CCCC[C@H](C)[C@@H](O)c2cc(O)c(c(O)c2)[C@@H](CCCCCl)CCCC[C@H](C)[C@@H](O)c2cc(O)c1c(O)c2 [CYLINDROCYCLOPHANE A1] | 4.56 | –
CCCC[C@H]1CCCC[C@H](C)[C@@H](O)c2cc(O)c(c(O)c2)[C@@H](CCCC(Cl)Cl)CCCC[C@H](C)[C@@H](O)c2cc(O)c1c(O)c2 [CYLINDROCYCLOPHANE A2] | 5.59 | 5.77
CCCC[C@H]1CCCC[C@H](C)Cc2cc(O)c(c(O)c2)[C@@H](CCCC)CCCC[C@H](C)Cc2cc(O)c1c(O)c2 [CYLINDROCYCLOPHANE F] | < 4.00 | –
C[C@H]1CCCC[C@H](CCCC(Cl)Cl)c2c(O)cc(cc2O)[C@H](O)[C@@H](C)CCCC[C@H](CCCC(Cl)Cl)c2c(O)cc(cc2O)C1 [CYLINDROCYCLOPHANE C4] | 4.95 | 5.55
C[C@H]1CCCC[C@H](CCCC(Cl)Cl)c2c(O)cc(cc2O)C[C@@H](C)CCCC[C@H](CCCC(Cl)Cl)c2c(O)cc(cc2O)C1 [CYLINDROCYCLOPHANE F4] | 4.35 | –
CCCC[C@H]1CCCC[C@H](C)[C@@H](O)c2cc(O)c(c(O)c2)[C@@H](CCCC)CCCC[C@H](C)[C@@H](O)c2cc(O)c1c(O)c2 [CYLINDROCYCLOPHANE A] | 4.47 | –
C[C@H]1CCCC[C@H](CCCCCl)c2c(O)cc(cc2O)[C@H](O)[C@@H](C)CCCC[C@H](CCCC(Cl)Cl)c2c(O)cc(cc2O)[C@@H]1O [CYLINDROCYCLOPHANE A3] | 5.56 | 6.30
C[C@H]1CCCC[C@H](CCCC(Br)Br)c2c(O)cc(cc2O)[C@H](O)[C@@H](C)CCCC[C@H](CCCC(Br)Br)c2c(O)cc(cc2O)[C@@H]1O [CYLINDROCYCLOPHANE AB4] | 5.65 | 6.30
